Results taken from US20050209106A1, “Substituted 4-(4-trifluoromethylpyrazolyl)pyrimidines” (Bayer CropScience GmbH, priority 2004, published 2005).

Legend:
Type in all cases: in vivo
Amaranthus retroflexus [1] = assay: Herbicidal pre-emergence action against harmful plants; conditions: dosage of 1000 g and less than 1000 g of active substance per hectare, visual scoring after 3 to 4 weeks, greenhouse
Text: (§1) 1. Herbicidal Pre-Emergence Action Against Harmful Plants
(§2) Seeds of mono- and dicotyledonous harmful plants are put in sandy loam in cardboard pots and covered with soil. The compounds according to the invention, which are formulated in the form of wettable powders or emulsion concentrates, are then applied to the surface of the soil cover as an aqueous suspension or emulsion at an application rate of 600 to 800 l/ha (converted) in various dosages. After the treatment, the pots are placed in a greenhouse and kept under good growth conditions for the weeds. Visual scoring of the plant damage or emergence damage is carried out after the test plants have emerged after a test period of 3 to 4 weeks in comparison with untreated controls.

Lolium multiflorum = assay: as above; conditions: dosage of 1000 g and less than 1000 g of active substance per hectare, visual scoring after 3 to 4 weeks, greenhouse
Text: as §1, §2

Setaria viridis = assay: as above; conditions: dosage of 1000 g and less than 1000 g of active substance per hectare, visual scoring after 3 to 4 weeks, greenhouse
Text: as §1, §2

Stellaria media [2] = assay: as above; conditions: dosage of 1000 g and less than 1000 g of active substance per hectare, visual scoring after 3 to 4 weeks, greenhouse
Text: as §1, §2

Amaranthus retroflexus [3] = assay: Herbicidal post-emergence action against harmful plants; conditions: three-leaf stage, dosage of 1000 g and less than 1000 g of active substance per hectare, scored after 3 to 4 weeks, greenhouse
Method: (§3) 2. Herbicidal Post-Emergence Action Against Harmful Plants
(§4) Seeds of mono- and dicotyledonous harmful plants are put into sandy loam in cardboard pots, covered with soil and grown in the greenhouse under good growth conditions. Two to three weeks after sowing, the test plants are treated at the three-leaf stage. The compounds according to the invention, which are formulated as wettable powders or as emulsion concentrates, are sprayed onto the surface of the green plant parts in various dosages at a water application rate of 600 to 800 l/ha (converted). After the test plants have been left to stand in the greenhouse for 3 to 4 weeks under optimum growth conditions, the action of the compounds is scored.

Avena fatua = assay: as above; conditions: three-leaf stage, dosage of 1000 g and less than 1000 g of active substance per hectare, scored after 3 to 4 weeks, greenhouse
Method: as §3, §4

Sinapis arvensis = assay: as above; conditions: three-leaf stage, dosage of 1000 g and less than 1000 g of active substance per hectare, scored after 3 to 4 weeks, greenhouse
Method: as §3, §4

Stellaria media [4] = assay: as above; conditions: three-leaf stage, dosage of 1000 g and less than 1000 g of active substance per hectare, scored after 3 to 4 weeks, greenhouse
Method: as §3, §4

COc1cc(-n2ncc(C(F)(F)F)c2C)nc(Oc2ccnc(C(F)(F)F)c2)n1 [1.39]
100%: action against Amaranthus retroflexus (Amaranthus retroflexus [1]) | action against Lolium multiflorum (Lolium multiflorum) | action against Setaria viridis (Setaria viridis) | action against Stellaria media (Stellaria media [2])

Cc1cc(-n2cc(C(F)(F)F)cn2)nc(Oc2cc(C(F)(F)F)nn2C)n1 [9.13]
100%: action against Amaranthus retroflexus (Amaranthus retroflexus [1]) | action against Setaria viridis (Setaria viridis) | action against Stellaria media (Stellaria media [2])

Cc1cc(-n2cc(C(F)(F)F)c(C)n2)nc(Oc2ccnc(C(F)(F)F)c2)n1 [1.14]
100%: action against Amaranthus retroflexus (Amaranthus retroflexus [1]) | action against Lolium multiflorum (Lolium multiflorum) | action against Setaria viridis (Setaria viridis) | action against Stellaria media (Stellaria media [2])

Cc1cc(-n2cc(C(F)(F)F)c(C)n2)nc(Oc2cc(C(F)(F)F)nn2C)n1 [9.14]
100%: action against Amaranthus retroflexus (Amaranthus retroflexus [1]) | action against Setaria viridis (Setaria viridis) | action against Stellaria media (Stellaria media [2])

CCc1cc(-n2cc(C(F)(F)F)cn2)nc(Oc2cc(C(F)(F)F)nn2C)n1 [9.25]
100%: action against Amaranthus retroflexus (Amaranthus retroflexus [3]) | action against Avena fatua (Avena fatua) | action against Sinapis arvensis (Sinapis arvensis) | action against Stellaria media (Stellaria media [4])

Cc1cc(-n2cc(C(F)(F)F)cn2)nc(Oc2csc(C(F)(F)F)c2)n1 [7.13]
100%: action against Amaranthus retroflexus (Amaranthus retroflexus [1]) | action against Setaria viridis (Setaria viridis) | action against Stellaria media (Stellaria media [2])

COc1cc(-n2cc(C(F)(F)F)cn2)nc(Oc2ccnc(OC(F)F)c2)n1 [1.46]
100%: action against Amaranthus retroflexus (Amaranthus retroflexus [1]) | action against Lolium multiflorum (Lolium multiflorum) | action against Setaria viridis (Setaria viridis) | action against Stellaria media (Stellaria media [2]) | action against Amaranthus retroflexus (Amaranthus retroflexus [3]) | action against Avena fatua (Avena fatua) | action against Sinapis arvensis (Sinapis arvensis) | action against Stellaria media (Stellaria media [4])

CCc1cc(-n2cc(C(F)(F)F)c(C)n2)nc(Oc2ccnc(C(F)(F)F)c2)n1 [1.26]
100%: action against Amaranthus retroflexus (Amaranthus retroflexus [1]) | action against Lolium multiflorum (Lolium multiflorum) | action against Setaria viridis (Setaria viridis) | action against Stellaria media (Stellaria media [2])
